Tests used:
[1] = molecular target: Citron Rho-interacting kinase (Homo sapiens) (UniProt O14578); details: Compound concentration 1000.0 nM
[2] = system: Epidermal growth factor receptor (Homo sapiens), P00533 [UNDEFINED MUTATION]; details: Compound concentration 1000.0 nM
[3] = molecular target: Serine/threonine-protein kinase 38-like (Homo sapiens) (UniProt Q9Y2H1); details: Compound concentration 1000.0 nM
[4] = molecular target: cGMP-dependent protein kinase 2 (Homo sapiens) (UniProt Q13237); details: Compound concentration 1000.0 nM
[5] = molecular target: Mitogen-activated protein kinase kinase kinase kinase 3 (Homo sapiens) (UniProt Q8IVH8); details: Compound concentration 1000.0 nM
[6] = molecular target: Inhibitor of nuclear factor kappa-B kinase subunit epsilon (Homo sapiens) (UniProt Q14164); details: Compound concentration 1000.0 nM
[7] = molecular target: Serine/threonine-protein kinase Sgk1 (Homo sapiens) (UniProt O00141); details: Compound concentration 1000.0 nM
[8] = molecular target: Homeodomain-interacting protein kinase 4 (Homo sapiens) (UniProt Q8NE63); details: Compound concentration 1000.0 nM
[9] = molecular target: Cyclin-dependent kinase-like 3 (Homo sapiens) (UniProt Q8IVW4); details: Compound concentration 1000.0 nM
[10] = system: Epidermal growth factor receptor (Homo sapiens), P00533 [L861Q]; details: Compound concentration 1000.0 nM
[11] = molecular target: Serine/threonine-protein kinase tousled-like 2 (Homo sapiens) (UniProt Q86UE8); details: Compound concentration 1000.0 nM
[12] = molecular target: Ribosomal protein S6 kinase alpha-1 (Homo sapiens) (UniProt Q15418); details: Compound concentration 1000.0 nM
Rattus norvegicus = organism: Rattus norvegicus; details: Compound concentration 10.0 uM
[13] = molecular target: AP2-associated protein kinase 1 (Homo sapiens) (UniProt Q2M2I8); details: Compound concentration 1000.0 nM
[14] = molecular target: Serine/threonine-protein kinase D1 (Homo sapiens) (UniProt Q15139); details: Compound concentration 1000.0 nM
[15] = molecular target: Cyclin-dependent kinase 5 (Homo sapiens) (UniProt Q00535); details: Compound concentration 1000.0 nM
Cyclin-dependent kinase 5 (Homo sapiens), sequence (Q00535 whole entry, looked up): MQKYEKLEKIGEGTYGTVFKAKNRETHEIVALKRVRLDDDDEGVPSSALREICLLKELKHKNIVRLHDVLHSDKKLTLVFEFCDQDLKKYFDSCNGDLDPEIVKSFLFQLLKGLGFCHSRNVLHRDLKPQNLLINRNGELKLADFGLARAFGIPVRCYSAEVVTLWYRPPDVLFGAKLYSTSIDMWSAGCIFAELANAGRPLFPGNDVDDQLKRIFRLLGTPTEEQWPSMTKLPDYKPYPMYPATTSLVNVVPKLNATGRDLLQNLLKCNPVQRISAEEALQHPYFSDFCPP

[16] = molecular target: Cyclin-dependent kinase 14 (Homo sapiens) (UniProt O94921); details: Compound concentration 1000.0 nM
Cyclin-dependent kinase 14 (Homo sapiens), sequence (O94921 whole entry): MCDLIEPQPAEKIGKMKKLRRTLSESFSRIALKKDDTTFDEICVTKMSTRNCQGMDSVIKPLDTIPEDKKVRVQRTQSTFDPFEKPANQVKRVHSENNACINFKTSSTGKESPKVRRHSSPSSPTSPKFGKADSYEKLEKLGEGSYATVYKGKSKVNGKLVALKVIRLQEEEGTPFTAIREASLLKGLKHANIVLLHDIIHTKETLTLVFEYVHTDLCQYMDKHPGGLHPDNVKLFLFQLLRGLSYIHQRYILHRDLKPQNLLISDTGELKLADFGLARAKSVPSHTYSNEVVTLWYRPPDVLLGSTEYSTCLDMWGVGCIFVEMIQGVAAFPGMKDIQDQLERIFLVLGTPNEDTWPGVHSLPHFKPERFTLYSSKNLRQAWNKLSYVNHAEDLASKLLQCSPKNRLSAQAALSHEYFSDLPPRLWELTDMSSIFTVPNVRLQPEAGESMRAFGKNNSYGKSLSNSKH

[17] = molecular target: Proto-oncogene tyrosine-protein kinase receptor Ret (Homo sapiens) (UniProt P07949); details: Compound concentration 1000.0 nM
[18] = molecular target: Casein kinase I isoform epsilon (Homo sapiens) (UniProt P49674); details: Compound concentration 1000.0 nM
Casein kinase I isoform epsilon (Homo sapiens), sequence (P49674 whole entry, looked up, canonical isoform): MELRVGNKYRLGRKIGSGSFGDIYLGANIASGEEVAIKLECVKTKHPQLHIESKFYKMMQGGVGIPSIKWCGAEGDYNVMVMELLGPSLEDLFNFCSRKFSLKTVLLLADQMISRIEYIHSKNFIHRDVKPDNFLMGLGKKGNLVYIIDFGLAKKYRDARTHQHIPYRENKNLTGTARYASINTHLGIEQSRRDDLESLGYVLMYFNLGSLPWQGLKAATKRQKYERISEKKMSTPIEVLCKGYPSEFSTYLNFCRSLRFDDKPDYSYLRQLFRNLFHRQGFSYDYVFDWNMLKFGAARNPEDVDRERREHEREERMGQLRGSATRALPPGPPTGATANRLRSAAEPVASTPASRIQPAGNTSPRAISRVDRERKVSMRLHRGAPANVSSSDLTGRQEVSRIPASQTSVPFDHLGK

[19] = system: Tyrosine-protein kinase ABL1 (Homo sapiens), P00519 [F317L]; details: Compound concentration 1000.0 nM
[20] = system: Hepatocyte growth factor receptor (Homo sapiens), P08581 [M1250T]; details: Compound concentration 1000.0 nM
[21] = molecular target: Serine/threonine-protein kinase 17A (Homo sapiens) (UniProt Q9UEE5); details: Compound concentration 1000.0 nM
Serine/threonine-protein kinase 17A (Homo sapiens), sequence (Q9UEE5 whole entry): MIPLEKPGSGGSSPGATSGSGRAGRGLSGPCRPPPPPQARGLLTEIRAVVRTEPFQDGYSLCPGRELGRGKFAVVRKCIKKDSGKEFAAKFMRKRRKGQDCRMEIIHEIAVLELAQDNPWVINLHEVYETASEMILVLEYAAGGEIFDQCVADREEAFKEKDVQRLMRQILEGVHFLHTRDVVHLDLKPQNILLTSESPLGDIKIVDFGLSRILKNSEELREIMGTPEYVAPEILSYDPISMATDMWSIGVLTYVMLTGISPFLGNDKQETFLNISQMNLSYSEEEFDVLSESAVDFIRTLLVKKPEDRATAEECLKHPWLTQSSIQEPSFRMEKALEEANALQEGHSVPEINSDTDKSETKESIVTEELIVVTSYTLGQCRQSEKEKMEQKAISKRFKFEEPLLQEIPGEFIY

[22] = molecular target: Fibroblast growth factor receptor 3 (Homo sapiens) (UniProt P22607); details: Compound concentration 1000.0 nM
Fibroblast growth factor receptor 3 (Homo sapiens), sequence (P22607 23-806 limits assumed): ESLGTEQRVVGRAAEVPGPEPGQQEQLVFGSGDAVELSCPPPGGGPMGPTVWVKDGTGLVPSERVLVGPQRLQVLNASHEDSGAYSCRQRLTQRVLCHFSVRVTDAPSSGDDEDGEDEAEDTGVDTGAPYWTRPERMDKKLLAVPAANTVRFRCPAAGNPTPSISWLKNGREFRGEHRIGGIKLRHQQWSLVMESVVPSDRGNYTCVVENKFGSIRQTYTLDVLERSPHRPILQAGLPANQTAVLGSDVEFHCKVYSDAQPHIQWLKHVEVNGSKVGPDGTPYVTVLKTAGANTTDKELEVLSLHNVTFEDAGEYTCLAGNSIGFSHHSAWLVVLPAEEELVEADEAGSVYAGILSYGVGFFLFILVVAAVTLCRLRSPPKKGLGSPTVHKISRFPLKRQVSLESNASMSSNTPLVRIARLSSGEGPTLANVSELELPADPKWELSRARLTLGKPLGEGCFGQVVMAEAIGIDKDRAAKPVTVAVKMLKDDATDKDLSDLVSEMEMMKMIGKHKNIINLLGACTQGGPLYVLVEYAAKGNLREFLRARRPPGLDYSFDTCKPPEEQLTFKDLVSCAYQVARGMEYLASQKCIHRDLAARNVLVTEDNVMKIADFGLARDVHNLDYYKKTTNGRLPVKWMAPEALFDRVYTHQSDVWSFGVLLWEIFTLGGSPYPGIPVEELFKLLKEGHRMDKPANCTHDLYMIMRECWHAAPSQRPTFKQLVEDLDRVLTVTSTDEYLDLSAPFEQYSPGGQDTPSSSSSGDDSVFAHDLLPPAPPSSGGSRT

[23] = molecular target: Ephrin type-A receptor 4 (Homo sapiens) (UniProt P54764); details: Compound concentration 1000.0 nM
[24] = molecular target: Serine/threonine-protein kinase pim-3 (Homo sapiens) (UniProt Q86V86); details: Compound concentration 1000.0 nM
[25] = molecular target: Mitogen-activated protein kinase kinase kinase 11 (Homo sapiens) (UniProt Q16584); details: Compound concentration 1000.0 nM
[26] = molecular target: Mitogen-activated protein kinase 6 (Homo sapiens) (UniProt Q16659); details: Compound concentration 1000.0 nM
Mitogen-activated protein kinase 6 (Homo sapiens), sequence (Q16659 whole entry): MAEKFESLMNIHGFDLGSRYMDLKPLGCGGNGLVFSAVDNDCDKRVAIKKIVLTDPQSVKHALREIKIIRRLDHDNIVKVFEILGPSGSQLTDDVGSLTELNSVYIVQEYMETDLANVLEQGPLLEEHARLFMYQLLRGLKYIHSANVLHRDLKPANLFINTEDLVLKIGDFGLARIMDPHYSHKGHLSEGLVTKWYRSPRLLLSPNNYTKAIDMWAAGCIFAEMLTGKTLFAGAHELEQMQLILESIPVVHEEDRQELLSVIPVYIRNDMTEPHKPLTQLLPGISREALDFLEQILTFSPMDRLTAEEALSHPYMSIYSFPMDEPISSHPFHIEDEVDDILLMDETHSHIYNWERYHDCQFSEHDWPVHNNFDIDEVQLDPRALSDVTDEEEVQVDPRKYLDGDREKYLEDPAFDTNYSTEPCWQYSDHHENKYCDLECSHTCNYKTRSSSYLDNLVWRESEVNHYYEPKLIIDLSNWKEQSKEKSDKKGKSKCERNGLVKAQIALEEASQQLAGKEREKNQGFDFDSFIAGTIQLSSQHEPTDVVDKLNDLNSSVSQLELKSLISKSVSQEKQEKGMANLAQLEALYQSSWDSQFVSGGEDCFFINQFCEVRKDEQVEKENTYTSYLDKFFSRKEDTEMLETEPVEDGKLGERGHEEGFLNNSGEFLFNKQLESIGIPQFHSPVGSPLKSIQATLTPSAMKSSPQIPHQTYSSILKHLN

[27] = molecular target: Calcium/calmodulin-dependent protein kinase type 1B (Homo sapiens) (UniProt Q6P2M8); details: Compound concentration 1000.0 nM
[28] = molecular target: Cyclin-dependent kinase 3 (Homo sapiens) (UniProt Q00526); details: Compound concentration 1000.0 nM
Cyclin-dependent kinase 3 (Homo sapiens), sequence (Q00526 whole entry, looked up): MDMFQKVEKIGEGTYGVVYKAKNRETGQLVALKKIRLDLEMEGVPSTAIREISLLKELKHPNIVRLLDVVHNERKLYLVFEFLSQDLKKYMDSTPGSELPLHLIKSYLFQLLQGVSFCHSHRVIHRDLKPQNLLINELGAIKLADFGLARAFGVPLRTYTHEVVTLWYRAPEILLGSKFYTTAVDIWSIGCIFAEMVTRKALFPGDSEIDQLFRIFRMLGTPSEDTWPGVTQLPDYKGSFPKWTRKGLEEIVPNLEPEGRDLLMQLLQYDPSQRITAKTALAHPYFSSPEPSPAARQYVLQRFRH

[29] = molecular target: Tyrosine-protein kinase Lyn (Homo sapiens) (UniProt P07948); details: Compound concentration 1000.0 nM
[30] = molecular target: Tyrosine-protein kinase Blk (Homo sapiens) (UniProt P51451); details: Compound concentration 1000.0 nM
Tyrosine-protein kinase Blk (Homo sapiens), sequence (P51451 2-505 limits assumed): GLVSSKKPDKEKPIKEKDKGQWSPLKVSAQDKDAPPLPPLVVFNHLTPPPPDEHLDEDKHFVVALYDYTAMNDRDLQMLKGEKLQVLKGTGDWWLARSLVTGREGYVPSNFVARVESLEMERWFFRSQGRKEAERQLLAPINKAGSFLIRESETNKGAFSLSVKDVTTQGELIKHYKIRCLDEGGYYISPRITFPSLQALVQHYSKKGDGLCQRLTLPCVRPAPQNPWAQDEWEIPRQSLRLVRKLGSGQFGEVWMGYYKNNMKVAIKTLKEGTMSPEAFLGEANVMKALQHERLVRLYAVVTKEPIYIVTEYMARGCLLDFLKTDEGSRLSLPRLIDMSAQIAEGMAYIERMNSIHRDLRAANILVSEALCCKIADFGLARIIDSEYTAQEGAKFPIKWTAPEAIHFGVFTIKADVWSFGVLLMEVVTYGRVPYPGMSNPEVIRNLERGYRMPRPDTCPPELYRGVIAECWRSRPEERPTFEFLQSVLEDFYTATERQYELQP

[31] = system: Hepatocyte growth factor receptor (Homo sapiens), P08581 [Y1235D]; details: Compound concentration 1000.0 nM
[32] = molecular target: Casein kinase I isoform alpha (Homo sapiens) (UniProt P48729); details: Compound concentration 1000.0 nM
[33] = molecular target: Fibroblast growth factor receptor 2 (Homo sapiens) (UniProt P21802); details: Compound concentration 1000.0 nM
[34] = system: Epidermal growth factor receptor (Homo sapiens), P00533 [G719S]; details: Compound concentration 1000.0 nM
[35] = system: Phosphatidylinositol 4,5-bisphosphate 3-kinase catalytic subunit alpha isoform (Homo sapiens), P42336 [I800L]; details: Compound concentration 1000.0 nM
Phosphatidylinositol 4,5-bisphosphate 3-kinase catalytic subunit alpha isoform (Homo sapiens), P42336 [I800L], sequence (P42336 whole entry I800L, canonical isoform): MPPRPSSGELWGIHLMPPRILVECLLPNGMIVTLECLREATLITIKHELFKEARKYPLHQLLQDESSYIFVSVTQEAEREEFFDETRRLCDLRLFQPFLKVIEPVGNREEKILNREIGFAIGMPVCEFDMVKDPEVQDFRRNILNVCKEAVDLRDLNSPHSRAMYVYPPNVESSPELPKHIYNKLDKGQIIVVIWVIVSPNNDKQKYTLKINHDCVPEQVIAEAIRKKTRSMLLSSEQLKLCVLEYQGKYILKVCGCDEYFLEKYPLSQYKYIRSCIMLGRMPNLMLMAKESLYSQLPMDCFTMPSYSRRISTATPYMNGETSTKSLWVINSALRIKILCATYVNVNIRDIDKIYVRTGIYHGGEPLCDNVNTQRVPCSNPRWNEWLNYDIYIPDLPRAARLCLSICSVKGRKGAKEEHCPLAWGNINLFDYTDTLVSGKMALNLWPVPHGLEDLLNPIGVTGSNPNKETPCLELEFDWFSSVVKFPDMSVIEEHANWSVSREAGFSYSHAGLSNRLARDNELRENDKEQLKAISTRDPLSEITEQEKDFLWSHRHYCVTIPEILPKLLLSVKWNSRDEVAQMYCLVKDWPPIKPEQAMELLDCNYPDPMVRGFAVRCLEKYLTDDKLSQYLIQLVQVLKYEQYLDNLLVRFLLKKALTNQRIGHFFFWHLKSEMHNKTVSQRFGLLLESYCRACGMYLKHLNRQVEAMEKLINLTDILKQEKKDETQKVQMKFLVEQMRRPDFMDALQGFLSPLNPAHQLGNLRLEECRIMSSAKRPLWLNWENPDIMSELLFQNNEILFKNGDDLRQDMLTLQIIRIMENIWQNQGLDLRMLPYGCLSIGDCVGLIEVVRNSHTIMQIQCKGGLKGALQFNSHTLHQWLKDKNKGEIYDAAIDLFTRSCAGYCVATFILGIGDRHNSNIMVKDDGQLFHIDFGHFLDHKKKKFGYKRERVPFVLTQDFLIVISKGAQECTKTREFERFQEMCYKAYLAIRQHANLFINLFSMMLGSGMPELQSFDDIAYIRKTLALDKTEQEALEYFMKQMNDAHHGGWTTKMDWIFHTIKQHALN

[36] = molecular target: Serine/threonine-protein kinase 33 (Homo sapiens) (UniProt Q9BYT3); details: Compound concentration 1000.0 nM
[37] = molecular target: Mitogen-activated protein kinase 3 (Homo sapiens) (UniProt P27361); details: Compound concentration 1000.0 nM
[38] = molecular target: Phosphatidylinositol 4-phosphate 5-kinase type-1 gamma (Homo sapiens) (UniProt O60331); details: Compound concentration 1000.0 nM
[39] = molecular target: Calcium/calmodulin-dependent protein kinase type II subunit beta (Homo sapiens) (UniProt Q13554); details: Compound concentration 1000.0 nM
[40] = molecular target: STE20-like serine/threonine-protein kinase (Homo sapiens) (UniProt Q9H2G2); details: Compound concentration 1000.0 nM
[41] = molecular target: Death-associated protein kinase 2 (Homo sapiens) (UniProt Q9UIK4); details: Compound concentration 1000.0 nM
[42] = molecular target: Mitogen-activated protein kinase kinase kinase 9 (Homo sapiens) (UniProt P80192); details: Compound concentration 1000.0 nM

CS(=O)(=O)NCC[C@H](NC(=O)c1cncc2c1cnn2-c1ccc(F)cc1)c1ccnc(S(C)(=O)=O)c1 [BI 9307]
inactive: residual activity [1] 73% | residual activity [2] 71% | residual activity [3] 50% | residual activity [4] 87% | residual activity [5] 90% | residual activity [6] 78% | residual activity [7] 100% | residual activity [8] 100% | residual activity [9] 99% | residual activity [10] 100% | residual activity [11] 100% | residual activity [12] 100% | inhibition (Rattus norvegicus) -5.04% | residual activity [13] 100% | residual activity [14] 92% | residual activity [15] 100% | residual activity [16] 100% | residual activity [17] 91% | residual activity [18] 100% | residual activity [19] 69% | residual activity [20] 88% | residual activity [21] 100% | residual activity [22] 100% | residual activity [23] 100% | residual activity [24] 100% | residual activity [25] 100% | residual activity [26] 100% | residual activity [27] 85% | residual activity [28] 100% | residual activity [29] 100% | residual activity [30] 100% | residual activity [31] 93% | residual activity [32] 100% | residual activity [33] 100% | residual activity [34] 75% | residual activity [35] 61% | residual activity [36] 87% | residual activity [37] 97% | residual activity [38] 78% | residual activity [39] 100% | residual activity [40] 100% | residual activity [41] 100% | residual activity [42] 97%

CS(=O)(=O)c1cc(C2(NC(=O)c3cncc4c3cnn4-c3ccc(F)cc3)CC2)ccn1 [BI 639667]
active: residual activity [3] 34%
inactive: residual activity [1] 100% | residual activity [2] 66% | residual activity [4] 89% | residual activity [5] 87% | residual activity [6] 100% | residual activity [7] 97% | residual activity [8] 100% | residual activity [9] 96% | residual activity [10] 100% | residual activity [11] 100% | residual activity [12] 77% | inhibition (Rattus norvegicus) 17.9% | residual activity [13] 94% | residual activity [14] 100% | residual activity [15] 100% | residual activity [16] 100% | residual activity [17] 100% | residual activity [18] 84% | residual activity [19] 68% | residual activity [20] 82% | residual activity [21] 84% | residual activity [22] 100% | residual activity [23] 100% | residual activity [24] 100% | residual activity [25] 100% | residual activity [26] 100% | residual activity [27] 78% | residual activity [28] 81% | residual activity [29] 100% | residual activity [30] 100% | residual activity [31] 91% | residual activity [32] 96% | residual activity [33] 100% | residual activity [34] 100% | residual activity [35] 68% | residual activity [36] 90% | residual activity [37] 100% | residual activity [38] 95% | residual activity [39] 100% | residual activity [40] 100% | residual activity [41] 96% | residual activity [42] 100%
